ChEMBL document CHEMBL6087479, “Discovery of a Potent and Selective GSPT1 Molecular Glue Degrader for the Treatment of Castration-Resistant Prostate Cancer” (J Med Chem, 2025)
pIC50: −log10 of the molar value. Calls of active or inactive are those of the source. No cut-off for these calls is given here.

Legend:
[1] = tested on: LNCaP; assay: cells; conditions: Homo sapiens, 96 h
Description: Antiproliferative activity against human LNCaP cells assessed as inhibition of cell proliferation incubated for 96 hrs by CellTiter-Glo assay

[2] = tested on: LNCaP C4-2B; assay: cells; conditions: Homo sapiens, 96 h
Description: Antiproliferative activity against human LNCaP C4-2B cells assessed as inhibition of cell proliferation incubated for 96 hrs by CellTiter-Glo assay

[3] = tested on: CWR22R; assay: cells; conditions: Homo sapiens, 22Rv1, 96 h
Description: Antiproliferative activity against human 22Rv1 cells assessed as inhibition of cell proliferation incubated for 96 hrs by CellTiter-Glo assay

[4] = molecular target: Protein cereblon/Bromodomain-containing protein 4 (Homo sapiens) (UniProt O60885+Q96SW2); assay: Molecular glue degradation activity at CRBN/BRD4 in human 22Rv1 cells at 12 to 1000 nM incubated for 6 hrs by Immunoblotting analysis; assay type: cell-based; conditions: dose 12-1000 nM
[5] = molecular target: Protein cereblon/Eukaryotic peptide chain release factor GTP-binding subunit ERF3A (Homo sapiens) (UniProt Q96SW2+P15170); assay: Protac activity at CRBN/GSPT1 in human 22Rv1 cells assessed as GSPT1 degradation at 12 to 1000 nM incubated for 6 hrs by Western blotting analysis; assay type: cell-based; conditions: dose 12-1000 nM
Chain of Protein cereblon/Eukaryotic peptide chain release factor GTP-binding subunit ERF3A (Homo sapiens) (P15170 whole entry, looked up): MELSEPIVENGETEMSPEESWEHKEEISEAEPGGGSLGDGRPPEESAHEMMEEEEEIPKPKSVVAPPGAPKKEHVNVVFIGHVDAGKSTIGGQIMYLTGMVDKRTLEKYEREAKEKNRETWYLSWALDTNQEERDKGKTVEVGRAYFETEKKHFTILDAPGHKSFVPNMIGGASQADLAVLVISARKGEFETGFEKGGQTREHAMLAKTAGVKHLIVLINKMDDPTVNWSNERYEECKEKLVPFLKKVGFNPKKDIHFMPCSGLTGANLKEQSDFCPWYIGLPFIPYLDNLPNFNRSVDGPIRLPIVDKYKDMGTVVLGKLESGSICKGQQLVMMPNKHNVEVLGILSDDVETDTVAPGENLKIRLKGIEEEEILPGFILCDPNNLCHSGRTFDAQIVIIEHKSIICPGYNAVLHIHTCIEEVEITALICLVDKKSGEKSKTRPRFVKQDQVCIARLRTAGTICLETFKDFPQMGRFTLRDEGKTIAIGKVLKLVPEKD
Chain of Protein cereblon/Eukaryotic peptide chain release factor GTP-binding subunit ERF3A (Homo sapiens) (Q96SW2 whole entry, looked up): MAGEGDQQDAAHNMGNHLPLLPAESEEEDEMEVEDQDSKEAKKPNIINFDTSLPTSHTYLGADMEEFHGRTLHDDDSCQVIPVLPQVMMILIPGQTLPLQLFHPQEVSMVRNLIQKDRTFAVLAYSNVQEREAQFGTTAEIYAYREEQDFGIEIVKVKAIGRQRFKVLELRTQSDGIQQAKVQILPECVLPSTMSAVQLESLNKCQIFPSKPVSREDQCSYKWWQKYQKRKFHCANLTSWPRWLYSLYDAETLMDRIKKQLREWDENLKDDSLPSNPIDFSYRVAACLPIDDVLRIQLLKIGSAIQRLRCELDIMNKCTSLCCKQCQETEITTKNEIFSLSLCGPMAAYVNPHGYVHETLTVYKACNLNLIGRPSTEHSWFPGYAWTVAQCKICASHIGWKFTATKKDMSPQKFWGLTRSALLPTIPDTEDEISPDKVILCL

Chain of Protein cereblon/Bromodomain-containing protein 4 (Homo sapiens) (Q96SW2 whole entry, looked up, other chains not shown): as the sequence (Q96SW2 whole entry, looked up) above

| pIC50 [1] | pIC50 [2] | pIC50 [3] | Activity [4] | Compound | Activity [5] |
| --- | --- | --- | --- | --- | --- |
| 5.60 | 5.74 | 5.79 |  | COc1cc2onc(C)c2cc1NS(=O)(=O)c1cc(Br)ccc1OC |  |
| < 5.00 | < 5.00 | < 5.00 |  | COc1ccc(Br)cc1S(=O)(=O)Nc1cc2c(C)noc2cc1OCC(=O)NCCCCCNC(=O)COc1cccc2c1C(=O)N(C1CCC(=O)NC1=O)C2=O (stereo not drawn) |  |
| 7.00 | 6.20 | 7.59 | inactive | COc1ccc(Br)cc1S(=O)(=O)Nc1cc2c(C)noc2cc1OCC(=O)NCCCNc1cccc2c1C(=O)N(C1CCC(=O)NC1=O)C2=O (stereo not drawn) | Active; Moderate Effect Of Degradation Observed |
| < 5.00 | < 5.00 | < 5.00 |  | COc1ccc(Br)cc1S(=O)(=O)Nc1cc2c(C)noc2cc1OCC(=O)NCCCCCNc1ccc2c(c1)C(=O)N(C1CCC(=O)NC1=O)C2=O (stereo not drawn) |  |
| < 5.00 | < 5.00 | < 5.00 |  | COc1ccc(Br)cc1S(=O)(=O)Nc1cc2c(C)noc2cc1OCC(=O)NCCNC(=O)COc1cccc2c1C(=O)N(C1CCC(=O)NC1=O)C2=O (stereo not drawn) |  |
| 6.95 | 5.85 | 7.21 | inactive | COc1ccc(Br)cc1S(=O)(=O)Nc1cc2c(C)noc2cc1OCC(=O)NCCCCNc1cccc2c1C(=O)N(C1CCC(=O)NC1=O)C2=O (stereo not drawn) | Active; Moderate Effect Of Degradation Observed |
| < 5.00 | < 5.00 | < 5.00 |  | COc1ccc(Br)cc1S(=O)(=O)Nc1cc2c(C)noc2cc1OCC(=O)NCCNc1ccc2c(c1)C(=O)N(C1CCC(=O)NC1=O)C2=O (stereo not drawn) |  |
| 5.60 | < 5.00 | 6.04 | inactive | COc1ccc(Br)cc1S(=O)(=O)Nc1cc2c(C)noc2cc1OCC(=O)NCCCCCCNc1cccc2c1C(=O)N(C1CCC(=O)NC1=O)C2=O (stereo not drawn) | Active; Moderate Effect Of Degradation Observed |
| < 5.00 | < 5.00 | < 5.00 |  | Nc1cccc2c1C(=O)N(C1CCC(=O)NC1=O)C2=O (stereo not drawn) [POMALIDOMIDE] |  |
